Experimental findings from PMC12040169 (PLOS Biology, 2025) are described below.

One series can be described thus: in vitro. The note with it: human, hela cells.
In the case of `O=C(O)c1cc(NC(=O)c2ccc3c(c2)C(=O)N(Cc2ccco2)C3=O)cc(C(=O)O)c1` [CBK267374], the viability at 28.5 h, 10 µM was 101%.

Still in this series, the particulars now being: human, hela cells, % viability.
In the case of `Cc1cc(C)c2c(c1)C1(C(=O)N2)C(C#N)=C(N)Oc2[nH]nc(-c3ccccc3)c21` (centres unmarked) [CBK267367], the viability at 28.5 h, 10 µM came to 100%.
As to `CC(CNC(=O)COc1ccc2ccccc2c1Br)CN(C)C` (centres unmarked) [CBK267369], the viability at 28.5 h, 10 µM is 94.9%.
For the compound `Cc1cc(O)nc(SCCOCCSc2ccc(Cl)cc2)n1` [CBK267372], the viability at 28.5 h, 10 µM came to 94%.
On to `CN(CC(=O)NNC(=O)c1ccc(C(C)(C)C)cc1)S(=O)(=O)c1cc(Cl)ccc1Cl` [CBK267376], for which the viability at 28.5 h, 10 µM amounted to 107%.
Regarding `O=S(=O)(NCc1ccco1)c1ccc2c(c1)Cc1ccccc1-2` [CBK267377], the viability at 28.5 h, 10 µM turned out to be 95.5%.
Regarding `COc1ccc(/C(N)=N/OC(=O)C(C)Oc2ccc(C(C)(C)C)cc2)cc1OC` (centres unmarked) [CBK267378], the viability at 28.5 h, 10 µM turned out to be 94.9%.
As to `CCN1CCN(CCCOc2ccccc2Cc2ccccc2)CC1` [CBK267379G], the viability at 28.5 h, 10 µM is 95%.
`CN(CCCC(=O)Nc1nnc[nH]1)S(=O)(=O)c1ccccc1` [CBK267380]: the viability at 28.5 h, 10 µM came to 82.4%.
As for `O=C(O)CCCC(=O)Nc1ccc([N+](=O)[O-])cc1O` [CBK267384], the viability at 28.5 h, 10 µM was 102%.
Consider `CN(Cc1nc(-c2cccnc2)no1)S(=O)(=O)c1ccc2ccccc2c1` [CBK267385], for which the viability at 28.5 h, 10 µM amounted to 87.2%.
On to `O=C(Nc1ccc(Cl)cc1Cl)NC(Cc1ccc(O)cc1)C(=O)O` (centres unmarked) [CBK267386], for which the viability at 28.5 h, 10 µM came out at 90.9%.
On to `COc1cc([N+](=O)[O-])ccc1NC(=O)CN(C)S(=O)(=O)c1ccc2ccccc2c1` [CBK267387], for which the viability at 28.5 h, 10 µM turned out to be 97.5%.
`CC(O)Cc1nnc(SCC(=O)c2ccc([N+](=O)[O-])cc2)n1-c1ccccc1` (centres unmarked) [CBK267389]: the viability at 28.5 h, 10 µM is 81.1%.
On the same count and under the same terms, with `O=C(COc1ccc2ccccc2c1Br)NCCN1CCOCC1` [CBK267391] the figure was 89.7%; with `C=CCc1cc(C)cc(C)c1OCCN1CCN(CC)CC1` [CBK267392G], 93.7%; with `Nc1nc(CSc2nnc(-c3ccccc3O)n2Cc2ccccc2)cs1` [CBK267394], 90.4%.
`COc1cc(OC)c(NC(=O)CN(C)S(=O)(=O)c2cc(Cl)ccc2Cl)cc1Cl` [CBK267399]: the viability at 28.5 h, 10 µM was determined as 91.3%.
`O=C(O)CCN1C(=O)c2ccc(Oc3ccc(NC(=O)c4ccc(Cl)c(Cl)c4)cc3)cc2C1=O` [CBK267400]: the viability at 28.5 h, 10 µM amounted to 90.6%.
Consider `O=C(O)CCC(=O)Nc1ccc(-c2nc3cc(C(=O)c4ccccc4)ccc3[nH]2)cc1` [CBK267401], for which the viability at 28.5 h, 10 µM came to 100%.
Take `Cc1cc(=O)oc2cc(OCc3ccc(S(=O)(=O)N4CCOCC4)cc3)ccc12` [CBK267402]: the viability at 28.5 h, 10 µM was determined as 91.3%.
For `COc1cc2c(cc1NC(=O)CN(C)S(=O)(=O)c1ccc(Cl)cc1)oc1ccccc12` [CBK267404], the viability at 28.5 h, 10 µM stood at 93.6%.
Take `O=C(Nc1ccc(Cl)cc1)NC(C(=O)O)c1ccccc1` (centres unmarked) [CBK267405]: the viability at 28.5 h, 10 µM came out at 94.9%.
With `Cc1ccccc1OCc1nnc(SCc2nnc(-c3ccccc3)o2)n1C` [CBK267406], the viability at 28.5 h, 10 µM turned out to be 90.1%.
Turning to `Cc1cc(O)nc(SCCCSc2ccccc2)n1` [CBK267415], the viability at 28.5 h, 10 µM is 114%.
Still for that read-out and setting: with `Cc1c(Cl)cc(C(C)C)c(O)c1CNC(=O)CSc1nnc(-c2cccs2)n1C` [CBK267416] the figure was 94.6%.
Same read-out and setting: with `Nc1nnc(SCC(=O)NC23CC4CC(CC(C4)C2)C3)s1` [CBK267417] the figure was 97.1%; with `COCCCNCC#CCOc1ccccc1OC` [CBK267419G], 94.5%.
Regarding `Cc1ccc(OCc2nnc(SCc3cccc(C#N)c3)n2N)cc1C` [CBK267420], the viability at 28.5 h, 10 µM was determined as 84.1%.
As for `Cc1ccc(C23CC4CC(CC(NC(=O)NC(Cc5ccccc5)C(=O)O)(C4)C2)C3)cc1` (centres unmarked) [CBK267423], the viability at 28.5 h, 10 µM turned out to be 93.7%.
Same read-out and setting: with `O=C(CSc1nnc(-c2ccccc2)n1C1CCCCC1)Nc1ccc(Cl)cc1Cl` [CBK267424] the figure was 100%; with `Cn1c(COc2ccccc2)nnc1SCC(=O)c1ccc(-c2ccccc2)cc1` [CBK267426], 87.9%; with `COc1ccc(OC)c(NC(=O)CSc2nnc(-c3ccco3)o2)c1` [CBK267429], 98.3%.
Consider `CN(CC(=O)Nc1nnc[nH]1)S(=O)(=O)c1cc(Cl)ccc1Cl` [CBK267433], for which the viability at 28.5 h, 10 µM came to 97%.
As for `O=C(CSCc1c(Cl)cccc1Cl)Nc1cccc(-c2nnc(-c3ccccc3)o2)c1` [CBK267435], the viability at 28.5 h, 10 µM is 96.7%.
On the same count and under the same terms, with `NS(=O)(=O)c1ccc(CCNC2CC(=O)N(Cc3ccccc3)C2=O)cc1` (centres unmarked) [CBK267439] the figure was 90.5%; with `COC(=O)C(O)(CC(=O)Nc1ccc(C)c(F)c1)C(F)(F)F` (centres unmarked) [CBK267440], 103%; with `CCOC(=O)NC(=O)CSc1nc2ccccc2[nH]1` [CBK267443], 91.9%.
For `COc1ccc(NC(=O)CSc2nc3c(c(-c4cccs4)c2C#N)CN(C)CC3)cc1OC` [CBK267444], the viability at 28.5 h, 10 µM amounted to 103%.
As for `CN1CCc2nc(SCC(=O)NC(C)(C)C)c(C#N)cc2C1` [CBK267445], the viability at 28.5 h, 10 µM was determined as 87.4%.
In the case of `CN1CCc2nc(SCC(=O)c3ccc(-c4ccccc4)cc3)c(C#N)c(-c3cccs3)c2C1` [CBK267447], the viability at 28.5 h, 10 µM was 88.3%.
For `CC1=C(C(=O)Nc2ccccc2)C(c2ccccc2)C(C#N)=C(SCc2ccncc2)N1` (centres unmarked) [CBK267448], the viability at 28.5 h, 10 µM was found to be 90.2%.
In the case of `CC(C)CC1C(C#N)=C(N)Oc2[nH]nc(-c3cccs3)c21` (centres unmarked) [CBK267449], the viability at 28.5 h, 10 µM turned out to be 104%.
In the case of `N#Cc1c(SCC(=O)N2CCc3ccccc3C2)nsc1SCC(=O)N1CCc2ccccc2C1` [CBK267453], the viability at 28.5 h, 10 µM is 93.6%.
Regarding `CCOC(=O)CC(=O)CSc1nc(-c2cccnc2)ccc1C#N` [CBK267456], the viability at 28.5 h, 10 µM worked out at 89.6%.
For the compound `CSc1nc(N)nc2sc3c(O)cc(=O)[nH]c3c12` [CBK267457], the viability at 28.5 h, 10 µM is 105%.
In the case of `Nc1cc(N)nc(SCc2cccnc2)n1` [CBK267459], the viability at 28.5 h, 10 µM came out at 97.5%.
Take `CSc1nc(N)nc(SC(C(=O)O)c2ccccc2)c1C#N` (centres unmarked) [CBK267461]: the viability at 28.5 h, 10 µM turned out to be 93.4%.
With `CN1CCc2nc(SCc3cccnc3)c(C#N)cc2C1` [CBK267463], the viability at 28.5 h, 10 µM worked out at 87.4%.
As for `CN(C)S(=O)(=O)N1CCN(C(=O)N(c2ccccc2)c2ccccc2)CC1` [CBK267466], the viability at 28.5 h, 10 µM is 96.7%.
On to `O=C(c1cccc(Br)c1)N1CCN(S(=O)(=O)N2CCOCC2)CC1` [CBK267470], for which the viability at 28.5 h, 10 µM amounted to 93.2%.
Regarding `O=C(CCc1ccccc1)NC(=S)Nc1ccc(-c2nc3ccccc3[nH]2)cc1` [CBK267472], the viability at 28.5 h, 10 µM was 77.1%.
The same measure, in the same setting: with `COC(=O)C1=C(C)N(CCc2ccccc2)C(=O)C1(NC(=O)c1ccccc1)C(F)(F)F` (centres unmarked) [CBK267477] the figure was 86%; with `Cn1ncc(C#N)c1NC(=O)C1CC(c2ccc(Cl)c(Cl)c2)=NO1` (centres unmarked) [CBK267478], 93.7%; with `O=C(NCCN1CCOCC1)c1cc(-c2ccccc2)on1` [CBK267479], 89.5%.
On to `O=C(NC1(C(F)(F)F)NC(=O)N(CCc2ccccc2)C1=O)c1ccco1` (centres unmarked) [CBK267482], for which the viability at 28.5 h, 10 µM is 89.2%.
